Legend:
[1] = system: Bone marrow and cord blood CD34+ progenitor cells; assay: Differentiation of CD34+ progenitor cells into dendritic cells, cell surface phenotype by flow cytometry; type: cell-based, human; set-up: key to Cell Population CD15+ / Cell Population CD34+ CD38− / Cell Population CD34− CD38+ / Cell Population CD1a+ CD14− / Cell Population CD1a− CD14+: ↑: up arrow indicates an increase in the cell population; ↓: down arrow indicates a decrease; settings: day 6; SCF, Flt-3L, GM-CSF and TNF-α; versus DMSO-treated control
Protocol: Bone marrow and cord blood CD34^+ progenitor cells were obtained from Clonetics and cultured in Iscove's MDM with BIT 95000 (StemCell Technologies) in the presence of SCF, Flt-3L, GM-CSF and TNF-α for 6 days, and then in the presence of GM-CSF and TNF-α for 6 additional days.
Analysis of cell surface phenotype: Cells were processed for double staining (30 min at 4° C.) at day 6 and day 12 using FITC and PE conjugated mAbs. Antibodies used were from BD Pharmingen: CD34 (PE), CD38 (FITC), CD33 (FITC), CD1a (FITC), CD86 (PE), CD14 (PE), CD83 (PE), CD54 (PE), CD11b (PE), CD11c (PE), HLA-DR (PE), CD15 (FITC), and CD133 (PE) from Miltenyi. Fluorescence analysis was performed on a FACScan flow cytometer after acquisition of 10,000 events (Coulter). Results presented are representative of four independent experiments.
The methodology described above, i.e., the examination of the effect of IMiDs such as ACTIMID™ on the differentiation on early progenitor cells, such as CD34^+ cells, can be applied to any compound of interest, the effect of which on differentiation is desired to be known. As an example of the extension of this assay method to other compounds, we compared the effect of retinoic acid (ATRA) and aspirin to that of ACTIMID™ on the differentiation of CD34^+ cells toward the DC lineage versus the control (DMSO-treated) cells. Retinoic acid was studied because of its known effect on cellular proliferation and differentiation, its therapeutic use in some cancer, and its known teratogenic effect. Conversely, we studied the effect of aspirin because it is a commonly-used anti-inflammatory drug with no immunomodulatory properties. The results at day 6 of CD34^+ progenitors cells cultured in the presence of SCF, Flt-3L, GM-CSF and TNF-α, with or without compound for a period of 6 days, are presented below in Table 2 (up arrow indicates an increase in the cell population; down arrow indicates a decrease).

[2] = system: Murine Sca+Lin− hematopoietic progenitor cells; assay: Generation of murine dendritic cells from bone marrow Sca+Lin− progenitors, cell surface phenotype; type: cell-based, mouse (C57BL/6)
Excerpt: Mouse bone marrow from inbred C57BL/6 mice was obtained from Clonetics. Hematopoietic Sca+Lin− progenitors were enriched using SpinSep murine progenitor enrichment cocktail (StemCell Technologies) and cultured in Iscove's MDM with BIT 95000 (StemCell Technologies) in the presence of murine growth factors SCF, Flt3L, GM-CSF and M-CSF for 9 days, to promote expansion of Sca+ cells and a DC precursor phenotype and then in the presence of GM-CSF and TNF-α for 3 additional days to drive the cells to an immature DC phenotype. Enriched Sca+Lin− cells were cultured in the presence of DMSO (0.1%), ACTIMID™ at 10 μM or all-trans retinoic acid (ATRA) (ICN Biomedicals) at 10 μM from day 0. Compounds were added to cells at day 0 and day 9.
Analysis of Murine cell surface phenotype: Murine cells were processed for double staining (14 min at RT) at day 9 and day 12; using FITC and PE conjugated mAbs. Antibodies used were from BD Pharmingen: Sea (PE), CD11b (FITC), Gr-1 (FITC), CD86 (PE), CD14 (PE), CD80 (PE), I-A^b (PE), CD40 (PE) and CD32.1/16.1 (FITC) from Miltenyi. Fluorescence analysis was performed on a FACScan flow cytometer (Coulter) after acquisition of 10,000 events.

[3] = system: Human Cord Blood CD34+ Cells; assay: FACS analysis of proliferation and differentiation of cord blood CD34+ cells cultured with IL3, G-CSF and Kit-ligand; type: cell-based; settings: for CD11b+ Cell Population / CD34+CD38+ Cell Population / CD34+CD38− Cell Population: 7 days
Protocol: CB CD34+ cells were initiated at 4×10^4 cells/ml in a 24-well plate in 20% FCS IMDM (fetal calf serum/Iscove's Modified Dulbecco's Medium) supplemented with cytokines (1 L3, GCSF and Kit-ligand) (R&D Systems, Inc.). Thalidomide (Thal), ACTIMID™ or REVIMID™ were included in the culture at three different concentrations: 5 μg/ml, 1 μg/ml and 0.3 μg/ml. The same volumes of DMSO were used as controls. A negative control without, any compound was also used (indicated by “none” in FIGS. 3-7). Cells were cultured at 37° C. and 5% CO2 in a humidified incubator for 7 days. Cells were then harvested from each well.
The total cell number from each well was determined by counting in a CELL-DYN® 1700 (Abbott Diagnostics) and the expression of CXCR4, CD45, CD34, CD38, CD 1 lb and Gly-A expression was analyzed by FACS (fluorescence-activated cell sorting) staining (FIGS. 3-7).
CB cells from two different donors (CB2276 and CB2417) were cultured, assayed and analyzed separately (Table 1).

[4] = system: Purified human cord blood CD34+ cells; assay: Monocyte production: CD34/CD14 staining of cord blood CD34+ cells cultured 14 days with cytokines; type: cell-based; settings: 14 days
Protocol: Purified human cord blood CD34+ cells (greater than 90% CD34+) were cultured in 20% FCS IMDM medium supplemented with cytokines (IL3, IL6, G-CSF, KL and Epo) at 4×10^4 cells/ml for 14 days at 37° C. in a humidified 5% CO2 incubator. The experimental groups consisted of a group in which (i) no DMSO or chemical compounds were added (“None”), (ii) DMSO only, (iii) Thalidomide dissolved in DMSO, (iv) ACTIMID™ dissolved in DMSO, and (v) REVIMID™ dissolved in DMSO. Aliquots of cells were harvested and stained with CD34-PE conjugated monoclonal antibody and CD14-FITC conjugated monoclonal antibody.

CC1=C(/C=C/C(C)=C/C=C/C(C)=C/C(=O)O)C(C)(C)CCC1 [All-trans RA, all-trans retinoic acid, reference compound]
Cell Population CD1a+ CD14− [1]: ↓ | Cell Population CD1a− CD14+ [1]: ↓ | Cell Population CD15+ [1]: ↑ | Cell Population CD34+ CD38− [1]: ↓ | Cell Population CD34− CD38+ [1]: ↑ | CD80, I-A^b and Sca+ expression by day 9 ([2]; 10 μM from day 0, data not shown): marked downregulation | expression of CD40 and CD80 ([2]; 10 μM, not shown): marked downregulation

CC(=O)Oc1ccccc1C(=O)O [Aspirin, acetylsalicylic acid, reference compound]
Cell Population CD1a+ CD14− [1]: No change | Cell Population CD1a− CD14+ [1]: No change | Cell Population CD15+ [1]: No change | Cell Population CD34+ CD38− [1]: No change | Cell Population CD34− CD38+ [1]: No change

O=C1CCC(N2C(=O)c3ccccc3C2=O)C(=O)N1 (stereo not drawn) [Thalidomide, reference compound]
expression of CXCR4 ([3]; FACS analysis of surface proteins): not | yield of cells ([3]; IL-3, KL and G-CSF, compared with the DMSO control): slightly higher number of cells | effect on the proliferation of CD34+ cells ([3]; IL-3, KL and G-CSF, compared with the negative control (none)): do not have a significant effect | CD11b+ Cell Population ([3]; donor CB2276, 0.3 μg/ml): 7.6% | CD34+CD38+ Cell Population ([3]; donor CB2276, 0.3 μg/ml): 15.1 | CD34+CD38− Cell Population ([3]; donor CB2276, 0.3 μg/ml): 3.2 | CD11b+ Cell Population ([3]; donor CB2276, 1 μg/ml): 6.2% | CD34+CD38+ Cell Population ([3]; donor CB2276, 1 μg/ml): 3.8 | CD34+CD38− Cell Population ([3]; donor CB2276, 1 μg/ml): 1.0 | CD11b+ Cell Population ([3]; donor CB2276, 5 μg/ml): 8.1% | CD34+CD38+ Cell Population ([3]; donor CB2276, 5 μg/ml): 6.5 | CD34+CD38− Cell Population ([3]; donor CB2276, 5 μg/ml): 3.5 | CD11b+ Cell Population ([3]; donor CB2417, 0.3 μg/ml): 7.8% | CD34+CD38+ Cell Population ([3]; donor CB2417, 0.3 μg/ml): 5.0 | CD34+CD38− Cell Population ([3]; donor CB2417, 0.3 μg/ml): 0.8 | CD11b+ Cell Population ([3]; donor CB2417, 1 μg/ml): 5.2% | CD34+CD38+ Cell Population ([3]; donor CB2417, 1 μg/ml): 3.8 | CD34+CD38− Cell Population ([3]; donor CB2417, 1 μg/ml): 1.0 | CD11b+ Cell Population ([3]; donor CB2417, 5 μg/ml): 6.5% | CD34+CD38+ Cell Population ([3]; donor CB2417, 5 μg/ml): 3.0 | CD34+CD38− Cell Population ([3]; donor CB2417, 5 μg/ml): 1.1 | CD38 status of the majority of CD34+ and CD34− cells ([3]; treated cell populations): mainly CD38+ | percentage of CD34+ cells of the total cells ([4]; IL3, IL6, G-CSF, KL and Epo, compound dissolved in DMSO): 0.24% | production of monocytes (CD14+ cells) ([4]; relative to DMSO-treated group): similar
